ChEMBL document CHEMBL4402583, “Rational Substitution of ε-Lysine for α-Lysine Enhances the Cell and Membrane Selectivity of Pore-Forming Melittin” (J Med Chem, 2020)
≈ marks a conversion by molar mass, not a printed value.

How the values were obtained:
Enterococcus faecalis [1] = experiment: Antibacterial activity against Mel-5-resistant vancomycin-resistant Enterococcus faecalis 1010 assessed as reduction in bacterial growth measured after 24 hrs by broth microdilution method; type: functional; conditions: Enterococcus faecalis, 1010, 24 h
Staphylococcus aureus [2] = experiment: In vivo antibacterial activity against Staphylococcus aureus ATCC 29213 infected in C57BL/6 mouse assessed as reduction in bacterial burden by measuring log10 CFU/cornea at 0.3% administered topically as two times on day 1, four times on day 2 and two times on day 3 measured at 48 hrs post-final dose by 10 fold serial dilution method (reference value: 6.5 +/- 0.7 log10CFU); type: functional
Enterococcus faecalis [3] = experiment: Ratio of MIC for vancomycin-resistant Enterococcus faecalis 1010 to MIC for Mel-5-resistant vancomycin-resistant Enterococcus faecalis 1010 incubated for 24 hrs by broth microdilution method; type: functional
Enterococcus faecalis [4] = experiment: Antibacterial activity against vancomycin-resistant Enterococcus faecalis 1010 assessed as reduction in bacterial growth measured after 24 hrs by broth microdilution method; type: functional; conditions: Enterococcus faecalis, 1010, 24 h
Enterococcus faecalis [5] = experiment: Ratio of MIC for Mel-5-resistant vancomycin-resistant Enterococcus faecalis 1010 to MIC for vancomycin-resistant Enterococcus faecalis 1010 incubated for 24 hrs by broth microdilution method; type: functional
Enterococcus faecalis [6] = experiment: Resistance index, ratio of MIC for vancomycin-resistant Enterococcus faecalis 1010 measured after 14 serial passages by broth microdilution method to MIC for vancomycin-resistant Enterococcus faecalis 1010 incubated for 24 hrs by broth microdilution method; type: functional
NHDF [7] = experiment: Cytotoxicity against HDF cells assessed as reduction in metabolic activity at 500 ug/ml incubated for 24 hrs by MTS assay relative to control; type: ADME, cell-based; design: scale not given: the % may be the effect or the level left; conditions: human
[8] = Cytotoxicity against HDF cells assessed as minimum cytotoxic concentration incubated for 24 hrs by MTS assay; type: cell-based; conditions: human, HDF cells (NHDF, human dermal fibroblasts)
Pseudomonas aeruginosa = experiment: Antibacterial activity against Pseudomonas aeruginosa assessed as reduction in bacterial growth incubated for 24 hrs by broth microdilution method; type: functional
Staphylococcus aureus [9] = experiment: Antibacterial activity against Staphylococcus aureus assessed as reduction in bacterial growth incubated for 24 hrs by broth microdilution method; type: functional
Candida albicans = experiment: Antifungal activity against Candida albicans assessed as reduction in fungal growth incubated for 24 hrs by broth microdilution method; type: functional
[10] = Cytotoxicity against HDF cells assessed as cell viability at 125 ug/ml incubated for 24 hrs by MTS assay relative to control; type: cell-based; conditions: human, HDF cells (NHDF, human dermal fibroblasts); read-out: Activity
[11] = Cytotoxicity against HDF cells assessed as cell viability at 250 ug/ml incubated for 24 hrs by MTS assay relative to control; type: cell-based; conditions: human, HDF cells (NHDF, human dermal fibroblasts); read-out: Activity
Lipid bilayer [12] = experiment: Induction of pore formation in negatively charged DOPE/DOPG large unilamellar vesicles assessed as calcein release at 0.39 to 50 uM measured for 60 mins by fluorescence based assay
Lipid bilayer [13] = experiment: Induction of pore formation in zwitterionic DOPC/cholesterol large unilamellar vesicles assessed as calcein release at 0.39 to 50 uM measured for 60 mins by fluorescence based assay
Staphylococcus aureus [14] = experiment: Antibacterial activity against methicillin-sensitive Staphylococcus aureus assessed as reduction in bacterial growth incubated for 24 hrs by broth microdilution method; type: functional
Staphylococcus aureus [15] = experiment: Antibacterial activity against methicillin-resistance Staphylococcus aureus assessed as reduction in bacterial growth incubated for 24 hrs by broth microdilution method; type: functional
Enterococcus = experiment: Antibacterial activity against vancomycin-resistant Enterococcus assessed as reduction in bacterial growth incubated for 24 hrs by broth microdilution method; type: functional
Acinetobacter baumannii = experiment: Antibacterial activity against multidrug-resistant Acinetobacter baumannii assessed as reduction in bacterial growth incubated for 24 hrs by broth microdilution method; type: functional
Enterobacteriaceae = experiment: Antibacterial activity against Carbapenem-Resistant Enterobacteriaceae assessed as reduction in bacterial growth incubated for 24 hrs by broth microdilution method; type: functional
NHDF [16] = experiment: Cytotoxicity against HDF cells at 250 ug/ml incubated for 24 hrs by Alexa Fluor […] phalloidin-FITC/Hoescht dye staining based fluorescence microscopic analysis; type: cell-based; conditions: human
[17] = Cytotoxicity against HDF cells assessed as minimum cytotoxic concentration incubated for 24 hrs by Alexa Fluor […] phalloidin-FITC/Hoescht dye staining based fluorescence microscopic analysis; type: cell-based; conditions: human, HDF cells (NHDF, human dermal fibroblasts)

COc1c(N2CCNC(C)C2)c(F)cc2c(=O)c(C(=O)O)cn(C3CC3)c12 (stereo not given) [GATIFLOXACIN]
MIC (Enterococcus faecalis [1]): 8 µg/mL (≈ 21.3 µM) | Activity (Staphylococcus aureus [2]): 2.5 log10CFU | Ratio (Enterococcus faecalis [3]): 8 | MIC (Enterococcus faecalis [4]): 4 µg/mL (≈ 10.7 µM)

CCCCCCCCCC(=O)N[C@@H](Cc1c[nH]c2ccccc12)C(=O)N[C@H](CC(N)=O)C(=O)N[C@@H](CC(=O)O)C(=O)N[C@@H]1C(=O)NCC(=O)N[C@@H](CCCN)C(=O)N[C@@H](CC(=O)O)C(=O)N[C@H](C)C(=O)N[C@@H](CC(=O)O)C(=O)NCC(=O)N[C@H](CO)C(=O)N[C@@H]([C@@H](C)CC(=O)O)C(=O)N[C@@H](CC(=O)c2ccccc2N)C(=O)O[C@@H]1C
MIC (Enterococcus faecalis [1]): > 512 µg/mL | Ratio (Enterococcus faecalis [5]): >128 | Ratio (Enterococcus faecalis [6]): 4 | MIC (Enterococcus faecalis [4]): 64 µg/mL (≈ 39.5 µM)

CC[C@H](C)[C@H](NC(=O)CN)C(=O)NCC(=O)N[C@@H](C)C(=O)N[C@H](C(=O)N[C@@H](CC(C)C)C(=O)NCCC[C@@H](CN)C(=O)N[C@H](C(=O)N[C@@H](CC(C)C)C(=O)N[C@H](C(=O)N[C@H](C(=O)NCC(=O)N[C@@H](CC(C)C)C(=O)N1CCC[C@H]1C(=O)N[C@@H](C)C(=O)N[C@@H](CC(C)C)C(=O)N[C@H](C(=O)N[C@@H](CO)C(=O)N[C@@H](Cc1c[nH]c2ccccc12)C(=O)N[C@H](C(=O)N[C@@H](CCCCN)C(=O)N[C@@H](CCCNC(=N)N)C(=O)N[C@@H](CCCCN)C(=O)N[C@@H](CCCNC(=N)N)C(=O)N[C@@H](CCC(N)=O)C(=O)N[C@@H](CCC(N)=O)C(N)=O)[C@@H](C)CC)[C@@H](C)CC)[C@@H](C)O)[C@@H](C)O)C(C)C)C(C)C
Activity (NHDF [7]): 100% | MCC at 24 h [8]: > 125 µg/mL | MIC (Pseudomonas aeruginosa): 8 to 64 µg/mL (≈ 2.81 to 22.5 µM) | MIC50 (Pseudomonas aeruginosa): 16 µg/mL (≈ 5.62 µM) | MIC (Staphylococcus aureus [9]): 8 to 32 µg/mL (≈ 2.81 to 11.2 µM) | MIC (Candida albicans): 4 to 8 µg/mL (≈ 1.41 to 2.81 µM) | MIC50 (Candida albicans): 4 µg/mL (≈ 1.41 µM) | viability at 24 h, 125 ug/ml [10]: 112% | viability at 24 h, 250 ug/ml [11]: 32.4% | Activity (Lipid bilayer [12]): 41.8% | Activity (Lipid bilayer [13]): 7.8% | MIC (Staphylococcus aureus [14]): 4 to 32 µg/mL (≈ 1.41 to 11.2 µM) | MIC50 (Staphylococcus aureus [14]): 16 µg/mL (≈ 5.62 µM) | MIC50 (Staphylococcus aureus [15]): 16 µg/mL (≈ 5.62 µM) | MIC (Enterococcus): 4 to 32 µg/mL (≈ 1.41 to 11.2 µM) | MIC50 (Enterococcus): 8 µg/mL (≈ 2.81 µM) | MIC (Acinetobacter baumannii): 2 to 4 µg/mL (≈ 0.703 to 1.41 µM) | MIC50 (Acinetobacter baumannii): 2 µg/mL (≈ 0.703 µM) | MIC (Enterobacteriaceae): 4 to 64 µg/mL (≈ 1.41 to 22.5 µM) | MIC50 (Enterobacteriaceae): 8 µg/mL (≈ 2.81 µM) | Activity (NHDF [16]): Toxic | MCC at 24 h [17]: > 125 µg/mL
